In patent publication US20130197085A1, “AGENT AND METHOD FOR STABILIZING MEMBRANE PROTEIN” (priority 2007, published 2013):

Experiments:
[1] = target: T1, wild-type BSEP (Homo sapiens, UniProt O95342, L339V); experiment: Brefeldin A washing experiment, maturation of BSEP in MDCKII cells; type: cell-based; conditions: 1 mM 4PBA
T1 construct: expressed in transfected cells; host or cells: MDCKII cells infected with recombinant adenovirus
Protocol: (§1) MDCKII cells were dispersed on a 6-well plate, resulting in a density of 2.5×10^5 cells/well. After completion of the culture for 24 hours, the confluent cells were infected with recombinant adenoviruses having the cDNAs of wild-type, E297G and D482G BSEPs, and GFP, at 200 MOI. After completion of the infection, the cells were cultured for 12 hours. Thereafter, in order to inhibit the transport of BSEP from the endoplasmic reticulum to the Golgi body, the cells were treated in the presence or absence of 5 μg/ml brefeldin A (Sigma). After completion of the treatment for 2 hours, in the presence or absence of brefeldin A, 4PBA was added to the cells to a concentration of 1 mM. At the time point of 12 hours after the 4PBA treatment, a crude membrane fraction was prepared. The obtained fraction was separated by 6% SDS-PAGE, and Western blotting was then carried out.
(§2) The promotion of a process of converting an immature BSEP existing in the endoplasmic reticulum to a mature BSEP existing on the cell surface is considered to be a post-translation mechanism that may be associated with an increase in the expression of the mature BSEP on the cell surface. In order to evaluate the effects of the 4PBA treatment on the maturation of a BSEP, the transport of the BSEP from the endoplasmic reticulum to the Golgi body was inhibited with brefeldin A (BFA), the BFA was then washed out, and the maturation rate of the BSEP on MDCKII cells was measured. BFA is an agent for inducing the accumulation of an immature BSEP existing in the endoplasmic reticulum (FIGS. 5A and 5B). The maturation rate was evaluated by washing out such BFA and then measuring an increased amount of the band density of a mature BSEP over time according to Western blotting. The band density of the mature BSEP was calculated by subtracting the band density at 0 (zero) hour from the band density at each measurement time (FIG. 5B). […] In addition, in the case of mature BSEPs, the expression levels were not changed until 3 hours after the washing out of BFA, regardless of the presence or absence of 4PBA. […] At the time point 8 hours after the washing out of BFA, the MDCKII cells treated with 4PBA were compared with the MDCKII cells that had not been treated with 4PBA. As a result, the expression level of a mature BSEP in the MDCKII cells treated with 4PBA was higher than the same expression level in the MDCKII cells that had not been treated with 4PBA.

[2] = target: T2, D482G BSEP (Homo sapiens, UniProt O95342, D482G/L339V); experiment: as above; type: cell-based; conditions: 1 mM 4PBA
T2 construct: expressed in transfected cells; host or cells: MDCKII cells infected with recombinant adenovirus
T2 sequence (O95342 whole entry L339V/D482G): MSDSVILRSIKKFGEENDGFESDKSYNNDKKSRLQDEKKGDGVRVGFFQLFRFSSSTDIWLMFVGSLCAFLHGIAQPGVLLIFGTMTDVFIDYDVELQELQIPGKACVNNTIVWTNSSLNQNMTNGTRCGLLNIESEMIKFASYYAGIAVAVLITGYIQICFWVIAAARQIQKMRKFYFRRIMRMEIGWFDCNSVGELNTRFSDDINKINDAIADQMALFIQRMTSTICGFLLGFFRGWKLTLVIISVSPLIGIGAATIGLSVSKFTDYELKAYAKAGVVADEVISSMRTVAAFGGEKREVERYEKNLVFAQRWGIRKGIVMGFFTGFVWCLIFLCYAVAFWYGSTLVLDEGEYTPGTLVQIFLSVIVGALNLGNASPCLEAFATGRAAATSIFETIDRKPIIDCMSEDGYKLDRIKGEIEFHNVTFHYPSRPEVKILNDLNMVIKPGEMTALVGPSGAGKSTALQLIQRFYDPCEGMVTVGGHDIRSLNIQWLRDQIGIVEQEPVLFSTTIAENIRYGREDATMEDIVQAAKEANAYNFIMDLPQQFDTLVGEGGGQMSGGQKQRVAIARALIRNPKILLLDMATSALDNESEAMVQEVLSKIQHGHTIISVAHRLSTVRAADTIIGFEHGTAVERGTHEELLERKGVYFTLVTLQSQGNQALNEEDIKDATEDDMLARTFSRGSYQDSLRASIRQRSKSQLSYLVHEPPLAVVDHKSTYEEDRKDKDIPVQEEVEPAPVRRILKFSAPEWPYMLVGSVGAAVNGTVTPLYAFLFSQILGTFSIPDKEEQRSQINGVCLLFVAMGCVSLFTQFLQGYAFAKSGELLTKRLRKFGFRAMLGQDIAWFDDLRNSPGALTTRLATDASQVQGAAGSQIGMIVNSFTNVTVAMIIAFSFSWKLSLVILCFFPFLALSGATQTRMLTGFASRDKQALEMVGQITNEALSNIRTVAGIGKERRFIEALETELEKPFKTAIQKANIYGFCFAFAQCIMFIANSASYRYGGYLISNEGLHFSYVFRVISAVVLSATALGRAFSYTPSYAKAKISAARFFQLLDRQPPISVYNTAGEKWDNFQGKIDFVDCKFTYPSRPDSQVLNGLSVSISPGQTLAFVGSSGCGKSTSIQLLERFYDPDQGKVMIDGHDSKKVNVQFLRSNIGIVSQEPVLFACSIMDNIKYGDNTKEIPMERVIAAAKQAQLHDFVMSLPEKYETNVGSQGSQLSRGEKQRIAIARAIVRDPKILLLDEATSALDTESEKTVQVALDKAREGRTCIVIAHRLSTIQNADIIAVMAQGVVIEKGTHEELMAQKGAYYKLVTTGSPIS
Protocol: as §1, §2

[3] = target: T3, E297G BSEP (Homo sapiens, UniProt O95342, E297G/L339V); experiment: as above; type: cell-based; conditions: 1 mM 4PBA
T3 construct: expressed in transfected cells; host or cells: MDCKII cells infected with recombinant adenovirus
T3 sequence (O95342 whole entry E297G/L339V): as the sequence (O95342 whole entry L339V/D482G) above, with E297G, G482D counted along it
Protocol: as §1, §2

[4] = test system: extrinsic P-gp; experiment: Decomposition rate of cell surface-expressed protein (biotin-labeling) in MDCKII cells; type: cell-based; conditions: 1 mM 4PBA
[5] = test system: D482G BSEP mRNA; experiment: Measurement of BSEP mRNA level by real-time quantitative PCR in MDCKII cells; type: cell-based, human; conditions: 1 mM 4PBA, 24 hours; not statistically significant (P=0.20)
Protocol: (§3) MDCKII cells were dispersed on a 6-well plate, resulting in a density of 2.5×10^5 cells/well. After completion of the culture for 24 hours, the confluent cells were infected with recombinant adenoviruses having the cDNAs of wild-type, E297G and D482G BSEPs, and GFP, at 50 MOI. After completion of the infection, the cells were cultured for 24 hours. Thereafter, the cultured cells were treated with 1 mM 4PBA. After completion of the treatment for 24 hours, RNA was isolated using ISOGEN (Wako Pure Chemical Industries, Ltd.) in accordance with an instruction manual included therewith. A DNaseI treatment was carried out at 37° C. for 1 hour, and a reverse transcription reaction was then carried out (see Hayashi et al., Hepatology, 41: 916-924, 2005). The BSEP mRNA level was measured by real-time quantitative PCR according to an ordinary method. The quantitative PCR was carried out using the following primers.
(§4) It is to be noted that the expression of a BSEP gene in each reaction was standardized by the expression of GAPDH.

[6] = test system: E297G BSEP mRNA; experiment: as above; type: cell-based, human; conditions: 1 mM 4PBA, 24 hours; not statistically significant (P=0.20)
Protocol: as §3, §4

[7] = test system: wild-type BSEP mRNA; experiment: as above; type: cell-based, human; conditions: 1 mM 4PBA, 24 hours; not statistically significant (P=0.10)
Protocol: as §3, §4

[8] = 8 hours after the washing out of BFA
[9] = immediately after the washing out of BFA (hour 0)

T1 sequence (O95342 whole entry L339V): as the sequence (O95342 whole entry L339V/D482G) above, with G482D counted along it

`O=C(O)CCCc1ccccc1` [4PBA, 4-phenylbutyric acid] was tested, and the “expression level of mature BSEP, 4PBA-treated vs not treated cells” value (“expression level … vs not treated cells” below) [1, 8] was “higher”, the “expression level of immature BSEP in the endoplasmic reticulum, with vs without 4PBA” value (“expression level … vs without 4PBA” for short) [1, 9] was “almost the same” and the “expression level … vs not treated cells” value [2, 8] was “higher”. The “expression level … vs without 4PBA” value [2, 9] was “almost the same”, the “expression level … vs not treated cells” value [3, 8] was “higher” and the “expression level … vs without 4PBA” value [3, 9] was “almost the same”. For the same compound, the “decomposition of extrinsic P-gp on the cell surface” value [4] was “not influenced”, the “expression level of BSEP mRNA standardized by GAPDH mRNA” value (shortened to “expression level … by GAPDH mRNA”) [5] was “slightly increased” and the “expression level … by GAPDH mRNA” value [6] was “slightly increased”. For the same compound, the “expression level … by GAPDH mRNA” value [7] was “slightly increased”.
